This is an account of results in EPA's ToxRefDB 2.

Data set [1] deals with dog. Conditions: Sub-acute repeat dose toxicity, beagle, Oral, Gavage/Intubation, dose end: 14 day, group: systemic.
The subject of data set [2] is rat. Conditions: Sub-acute repeat dose toxicity; sprague dawley; Oral; Gavage/Intubation; dose end: 14 day; group: systemic; systemic / clinical chemistry / [other] / [other] + systemic / clinical chemistry / 5' nucleotidase / 5' nucleotidase + systemic / clinical ….
Data set [3] has as its system rat. The following applies: Prenatal developmental toxicity study, sprague dawley, Oral, Gavage/Intubation, dose end: 17 GD.
Data set [4] concerns rat. The following applies: Subchronic oral toxicity in rodents, fischer, Feed, dose end: 13 week.
Data set [5] deals with dog. Conditions: Chronic toxicity; beagle; Oral; Feed; dose end: 52 week; group: systemic; systemic / organ weight / adrenal gland / absolute + systemic / organ weight / adrenal gland / relative to body weight + systemic / ….
For data set [6], the system named is rat. Conditions: Combined chronic toxicity/carcinogenicity; fischer; Oral; Feed; dose end: 24 month; group: systemic; systemic / in life observation / body weight / body weight + systemic / in life observation / body weight / body weight gain + systemic / ….
In data set [7] the test system is mouse. Conditions: Combined chronic toxicity/carcinogenicity; b6c3f1; Oral; Feed; dose end: 104 week; group: systemic; systemic / in life observation / body weight / body weight + systemic / in life observation / body weight / body weight gain + systemic / ….
Data set [8] relates to rat. Conditions: Prenatal developmental toxicity study, other, Oral, Gavage/Intubation, dose end: 15 GD.
Data set [9] relates to rat. The following applies: Combined chronic toxicity/carcinogenicity, wistar, Oral, Feed, dose end: 104 week.
Data set [10] relates to dog. Conditions: Subchronic oral toxicity in nonrodent, beagle, Feed, dose end: 13 week, group: systemic, systemic / organ weight / lung / relative to body weight + systemic / pathology gross / lung / [other] + systemic / pathology microscopic / ….
Data set [11] has as its system mouse. The following applies: Combined chronic toxicity/carcinogenicity, other, Oral, [Not Specified], dose end: 99 week, group: systemic.
Data set [12] has as its system mouse. Conditions: Combined chronic toxicity/carcinogenicity, other, Oral, Feed, dose end: 104 week, group: systemic.
In data set [13] the test system is dog. Conditions: Chronic toxicity, beagle, Oral, Feed, dose end: 52 week, group: systemic.
In data set [14] the test system is mouse. The following applies: Combined chronic toxicity/carcinogenicity, b6c3f1, Oral, Feed, dose end: 104 week, group: systemic.
In data set [15] the test system is rat. The following applies: Combined chronic toxicity/carcinogenicity, fischer, Oral, Feed, dose end: 13 week, group: systemic.
Data set [16] concerns mouse. Conditions: Combined chronic toxicity/carcinogenicity, b6c3f1, Oral, Feed, dose end: 5 week, group: systemic.
For data set [17], the system named is rat. Conditions: Combined chronic toxicity/carcinogenicity, fischer, Oral, Feed, dose end: 119 week, group: systemic.
[18] abbreviates: systemic / clinical chemistry / cholesterol / cholesterol + systemic / clinical chemistry / thyroid stimulating hormone (thyrotropin) (tsh….
The mark [19] stands for this setting: systemic / clinical chemistry / thyroid stimulating hormone (thyrotropin) (tsh) / thyroid stimulating hormone (=thyrotropin) (tsh) + ….
Where [20] appears, read: group: developmental, developmental / developmental malformation / bone / delayed ossification.
Setting [21] is: group: maternal, systemic / in life observation / body weight / body weight gain + systemic / in life observation / food consumption / food consumption + ….
Setting [22] is: group: cholinesterase, cholinesterase / cholinesterase / cholinesterase / plasma cholinesterase (che).
Setting [23] is: group: systemic, systemic / organ weight / kidney / relative to body weight + systemic / organ weight / liver / absolute + systemic / organ weight / liver / ….
Where [24] appears, read: group: developmental, developmental / developmental malformation / bone / delayed ossification + systemic / in life observation / body weight / fetal weight.
The mark [25] stands for this setting: group: maternal, systemic / in life observation / body weight / body weight gain + systemic / in life observation / clinical signs / emaciation + systemic / ….
[26] abbreviates: group: cholinesterase, cholinesterase / cholinesterase / cholinesterase / erythrocyte cholinesterase (che).
[27] abbreviates: group: systemic, systemic / organ weight / kidney / absolute + systemic / organ weight / ovary / absolute.
Where [28] appears, read: group: systemic, systemic / organ weight / kidney / absolute + systemic / organ weight / ovary / absolute + systemic / organ weight / brain / relative to ….
Setting [29] is: systemic / in life observation / body weight / body weight + systemic / in life observation / food consumption / food consumption + systemic….
Where [30] appears, read: systemic / in life observation / food consumption / food consumption + systemic / pathology microscopic / blood / [other] + systemic / ….
Where [31] appears, read: systemic / pathology microscopic / lung / [other] + systemic / urinalysis / [other] / urine.
The mark [32] stands for this setting: systemic / organ weight / kidney / absolute + systemic / organ weight / liver / relative to body weight.
The mark [33] stands for this setting: systemic / organ weight / kidney / absolute + systemic / organ weight / liver / relative to body weight + systemic / organ weight / kidney….
Where [34] appears, read: systemic / organ weight / spleen / absolute + systemic / organ weight / spleen / relative to body weight.
Setting [35] is: systemic / organ weight / liver / absolute + systemic / organ weight / liver / relative to body weight + systemic / pathology microscopic / ….
[36] abbreviates: systemic / in life observation / body weight / body weight gain + systemic / organ weight / liver / relative to body weight + systemic / ….

Structures are written as SMILES.

The term LOAEL denotes the lowest dose or exposure tested at which an adverse effect was seen. The NOAEL is the highest tested level that showed no adverse finding.

As to `Cc1cc(NC(=O)C(=O)O)cc(C)c1Oc1ccc(O)c2c1CCC2`, in the data set on dog [1] (setting [18]), the LEL was found to be 5 mg/kg/day and the NEL is < 5 mg/kg/day. Moreover, in the data set on dog [1] (setting [19]), the LOAEL is > 100 mg/kg/day and the NOAEL was ≥ 100 mg/kg/day. Also, in the data set with rat [2], the LEL came out at 1 mg/kg/day, the LOAEL was > 1000 mg/kg/day, the NEL is < 1 mg/kg/day and the NOAEL was ≥ 1000 mg/kg/day.

Regarding `C[C@H]1[C@H](c2ccc(Cl)cc2)SC(=O)N1C(=O)NC1CCCCC1` [Hexythiazox], the LEL with rat [3] (setting [20]) came to 720 mg/kg/day; with rat [3] (setting [21]) it was 720 mg/kg/day; in the data set on rat [4] (setting [22]), 50 mg/kg/day; in the data set with rat [4] (setting [23]), 50 mg/kg/day; with dog [5], 13.1 mg/kg/day; in the data set on rat [6], 163 mg/kg/day. In addition, the LEL with mouse [7] turned out to be 267 mg/kg/day. For the same compound, the LOAEL in the data set on rat [3] (setting [20]) is > 2160 mg/kg/day; in the data set on rat [3] (group: maternal, systemic / in life observation / body weight / body weight gain + systemic / in life observation / food consumption / food consumption) it was 720 mg/kg/day; in the data set with rat [4] (setting [22]), > 350 mg/kg/day; in the data set on rat [4] (setting [23]), 50 mg/kg/day; in the data set with dog [5], 13.1 mg/kg/day; in the data set on rat [6], 163 mg/kg/day. The LOAEL with mouse [7] turned out to be 267 mg/kg/day. Besides, the NEL in the data set on rat [3] (setting [20]) was determined as 240 mg/kg/day; in the data set with rat [3] (setting [21]) it was 240 mg/kg/day; in the data set on rat [4] (setting [22]), 7 mg/kg/day; in the data set on rat [4] (setting [23]), 7 mg/kg/day; with dog [5], 2.87 mg/kg/day; with rat [6] it was 23 mg/kg/day. The NEL in the data set with mouse [7] came to 41.6 mg/kg/day. Besides, the NOAEL was ≥ 2160 mg/kg/day with rat [3] (setting [20]); 240 mg/kg/day in the data set with rat [3] (setting [21]); ≥ 350 mg/kg/day in the data set with rat [4] (setting [22]); 7 mg/kg/day in the data set with rat [4] (setting [23]); 2.87 mg/kg/day in the data set with dog [5]; 23 mg/kg/day in the data set with rat [6]. For the same compound, the no observed adverse effect level (NOAEL) with mouse [7] came out at 41.6 mg/kg/day.

In the case of `C[n+]1ccc(-c2cc[n+](C)cc2)cc1.[Cl-].[Cl-]` [Paraquat dichloride], the LOAEL in the data set on rat [8] (setting [20]) turned out to be 5 mg/kg/day; in the data set on rat [8] (setting [25]) it was 5 mg/kg/day; in the data set on rat [9] (setting [26]) it was 15 mg/kg/day; in the data set on rat [9] (setting [28]), 15 mg/kg/day; in the data set with dog [10], 1.5 mg/kg/day; in the data set with mouse [11] (setting [29]), 5.62 mg/kg/day. Besides, the LOAEL in the data set on mouse [12] (systemic / hematology / leukocyte (wbc) count differential / leukocyte (wbc) + systemic / hematology / erythrocyte (rbc) count differential…) came to 13 mg/kg/day; in the data set with dog [13] (systemic / pathology microscopic / lung / inflammation) it was 0.93 mg/kg/day. For the same compound, the LEL in the data set with rat [8] (setting [24]) turned out to be 5 mg/kg/day; in the data set with rat [8] (setting [25]), 5 mg/kg/day; with rat [9] (setting [26]), 15 mg/kg/day; in the data set with rat [9] (setting [28]), 15 mg/kg/day; with dog [10], 1.5 mg/kg/day; in the data set with mouse [11] (setting [30]), 1.88 mg/kg/day. Besides, the LEL came out at 3.82 mg/kg/day with mouse [12] (systemic / pathology microscopic / mammary gland / [other]) and 0.45 mg/kg/day with dog [13] (setting [31]). For the same compound, the NEL in the data set with rat [8] (setting [24]) was 1 mg/kg/day; in the data set on rat [8] (setting [25]) it was 1 mg/kg/day; in the data set with rat [9] (setting [26]), 5 mg/kg/day; in the data set on rat [9] (setting [27]) it was 5 mg/kg/day; in the data set with dog [10], 0.5 mg/kg/day; in the data set with mouse [11] (setting [30]) it was < 1.88 mg/kg/day. Besides, the NEL in the data set with mouse [12] (systemic / pathology microscopic / mammary gland / [other] + systemic / clinical chemistry / glucose / glucose + systemic / clinical …) was 1.32 mg/kg/day; in the data set on dog [13] (setting [31]), < 0.45 mg/kg/day. The NOAEL with rat [8] (setting [24]) amounted to 1 mg/kg/day; in the data set on rat [8] (setting [25]) it was 1 mg/kg/day; with rat [9] (setting [26]) it was 5 mg/kg/day; with rat [9] (setting [27]), 5 mg/kg/day; in the data set on dog [10], 0.5 mg/kg/day; in the data set with mouse [11] (setting [29]), 1.88 mg/kg/day. In addition, the NOAEL with mouse [12] (systemic / hematology / leukocyte (wbc) count differential / leukocyte (wbc)) is 3.82 mg/kg/day; with dog [13] (systemic / pathology microscopic / lung / inflammation + systemic / pathology microscopic / ear / squamous cell papilloma + systemic / in …), 0.45 mg/kg/day.

For the compound `CC(C)=CC1C(C(=O)OCc2cccc(Oc3ccccc3)c2)C1(C)C` (centres undefined) [Phenothrin], the LEL in the data set with mouse [14] (setting [32]) was found to be 45 mg/kg/day; in the data set on rat [15] (setting [34]) it was 21 mg/kg/day; with mouse [16] (systemic / pathology microscopic / liver / necrosis), 190 mg/kg/day; in the data set with rat [17] (setting [36]) it was 150 mg/kg/day. For the same compound, the NEL in the data set with mouse [14] (setting [32]) is < 45 mg/kg/day; with rat [15] (setting [34]), < 21 mg/kg/day; in the data set on mouse [16] (setting [35]), 57 mg/kg/day; in the data set on rat [17] (systemic / organ weight / liver / relative to body weight) it was 50 mg/kg/day. The LOAEL with mouse [14] (setting [33]) worked out at 150 mg/kg/day; in the data set with rat [15] (systemic / clinical chemistry / cholesterol / cholesterol + systemic / clinical chemistry / lactic acid dehydrogenase (ldh) / lactic acid …) it was 216 mg/kg/day; with mouse [16] (setting [35]), 565 mg/kg/day; in the data set with rat [17] (setting [36]), 150 mg/kg/day. Also, the NOAEL in the data set with mouse [14] (setting [33]) came out at 45 mg/kg/day; in the data set on rat [15] (systemic / organ weight / spleen / absolute + systemic / organ weight / spleen / relative to body weight + systemic / clinical chemistry / …), 70 mg/kg/day; in the data set with mouse [16] (setting [35]), 190 mg/kg/day; in the data set on rat [17] (systemic / in life observation / body weight / body weight gain) it was 50 mg/kg/day.
